Drawing on patent US6620831B2, “Indazoles substituted with 1,1-dioxoisothiazolidine useful as inhibitors of cell proliferation” (LG Life Sciences Ltd., priority 2000, dated 2003), this text covers IC50 for 28 molecules.

Some results are limits rather than exact numbers.

This test deals with T1, CDK2/cyclin A (Homo sapiens, UniProt P24941).
T1 construct: made in house; host or cells: insect ('worm') cells co-infected with baculoviruses
As to the kind of experiment: CDK2 inhibitory activity (CDK2/cyclin A, [gamma-32P] ATP, histon H1 or Rb protein substrate). The test is classed as biochemical. The note with it: first IC50 column (c1) of Table 1. An excerpt: CDK2 enzyme was obtained from either extract from the worm cell co-infected with baculovirus which expresses a CDK2 gene and baculovirus which expresses a cyclin A gene, or active enzyme purified therefrom. CDK4 was also obtained from either extract from the worm cell co-infected with baculovirus which expresses a CDK4 gene and baculovirus which expresses a cyclin D1 gene. As substrates, histon H1 or Rb protein was used for CDK2, and Rb protein for CDK4. The radioactive activities in substrates were determined by reacting compounds diluted with each concentration with a proper quantity of CDK2/cyclin A or CDK4/cyclin D1 and substrate protein, and [gamma-32P labeled] ATP, and then separating the substrates.
Inhibitory abilities of inhibitors according to the present invention for each enzyme activity were expressed as IC50 values, which were determined in accordance with the method as described above.
The IC50 is the midpoint of a concentration-inhibition curve. Take `O=C(Cc1ccccc1)Nc1n[nH]c2ccc(N3CCCS3(=O)=O)cc12` [Compound 1, N-[5-(1,1-dioxo-1λ^6-isothiazolidin-2-yl)-1H-indazol-3-yl]-2-phenylacetamide]: the IC50 is < 50 nM.

For `O=C(Cc1cccc(Cl)c1)Nc1n[nH]c2ccc(N3CCCS3(=O)=O)cc12` [Compound 2, 2-(3-chlorophenyl)-N-[5-(1,1-dioxo-1λ^6-isothiazolidin-2-yl)-1H-indazol-3-yl]acetamide], the IC50 was < 50 nM.

Consider `O=C(Cc1ccc(OCc2ccccc2)cc1)Nc1n[nH]c2ccc(N3CCCS3(=O)=O)cc12` [Compound 3, 2-[4-(benzyloxy)phenyl]-N-[5-(1,1-dioxo-1λ^6-isothiazolidin-2-yl)-1H-indazol-3-yl]acetamide], for which the IC50 was < 100 nM.

As for `O=C(Cc1ccc(O)cc1)Nc1n[nH]c2ccc(N3CCCS3(=O)=O)cc12` [Compound 4, N-[5-(1,1-dioxo-1λ^6-isothiazolidin-2-yl)-1H-indazol-3-yl]-2-(4-hydroxyphenyl)acetamide], the IC50 is < 50 nM.

Regarding `O=C(Cc1ccc(N(Cc2ccccc2)Cc2ccccc2)cc1)Nc1n[nH]c2ccc(N3CCCS3(=O)=O)cc12` [Compound 5, 2-[4-(dibenzylamino)phenyl]-N-[5-(1,1-dioxo-1λ^6-isothiazolidin-2-yl)-1H-indazol-3-yl]acetamide], the IC50 is < 500 nM.

Turning to `CNc1ccc(CC(=O)Nc2n[nH]c3ccc(N4CCCS4(=O)=O)cc23)cc1` [Compound 6, N-[5-(1,1-dioxo-1λ^6-isothiazolidin-2-yl)-1H-indazol-3-yl]-2-[4-(methylamino)phenyl]acetamide], the IC50 was < 50 nM.

On to `Nc1ccc(CC(=O)Nc2n[nH]c3ccc(N4CCCS4(=O)=O)cc23)cc1` [Compound 7, 2-(4-aminophenyl)-N-[5-(1,1-dioxo-1λ^6-isothiazolidin-2-yl)-1H-indazol-3-yl]acetamide], for which the IC50 was < 50 nM.

As to `O=C(Cc1ccc(Cl)cc1)Nc1n[nH]c2ccc(N3CCCS3(=O)=O)cc12` [Compound 8, 2-(4-chlorophenyl)-N-[5-(1,1-dioxo-1λ^6-isothiazolidin-2-yl)-1H-indazol-3-yl]acetamide], the IC50 was < 50 nM.

With `O=C(Cc1ccc(F)cc1)Nc1n[nH]c2ccc(N3CCCS3(=O)=O)cc12` [Compound 9, N-[5-(1,1-dioxo-1λ^6-isothiazolidin-2-yl)-1H-indazol-3-yl]-2-(4-fluorophenyl)acetamide], the IC50 is < 50 nM.

As to `O=C(Cc1ccc(-c2ccccc2)cc1)Nc1n[nH]c2ccc(N3CCCS3(=O)=O)cc12` [Compound 10, 2-[1,1′-biphenyl]-4-yl-N-[5-(1,1-dioxo-1λ^6-isothiazolidin-2-yl)-1H-indazol-3-yl]acetamide], the IC50 is < 50 nM.

On to `O=C(Cc1cccc(Br)c1)Nc1n[nH]c2ccc(N3CCCS3(=O)=O)cc12` [Compound 11, 2-(3-bromophenyl)-N-[5-(1,1-dioxo-1λ^6-isothiazolidin-2-yl)-1H-indazol-3-yl]acetamide], for which the IC50 was < 50 nM.

For the molecule `O=C(Cc1ccc(Br)cc1)Nc1n[nH]c2ccc(N3CCCS3(=O)=O)cc12` [Compound 12, 2-(4-bromophenyl)-N-[5-(1,1-dioxo-1λ^6-isothiazolidin-2-yl)-1H-indazol-3-yl]acetamide], the IC50 was < 50 nM.

With `O=S1(=O)CCCN1c1ccc2[nH]nc(NC(=S)Cc3ccccc3)c2c1` [Compound 13, N-[5-(1,1-dioxo-1λ^6-isothiazolidin-2-yl)-1H-indazol-3-yl]-2-phenylethanethioamide], the IC50 is < 10000 nM.

Consider `O=S1(=O)CCCN1c1ccc2[nH]nc(NC(Cc3ccccc3)=NO)c2c1` [Compound 14, N-[5-(1,1-dioxo-1λ^6-isothiazolidin-2-yl)-1H-indazol-3-yl]-N′-hydroxy-2-phenylethaneimidoamide], for which the IC50 was < 10000 nM.

On to `O=C(Cc1ccc2c(c1)OCO2)Nc1n[nH]c2ccc(N3CCCS3(=O)=O)cc12` [Compound 15, 2-(1,3-benzodioxol-5-yl)-N-[5-(1,1-dioxo-1λ^6-isothiazolidin-2-yl)-1H-indazole-3-yl]acetamide], for which the IC50 is < 50 nM.

As to `O=C(Cc1cccc2ccccc12)Nc1n[nH]c2ccc(N3CCCS3(=O)=O)cc12` [Compound 16, N-[5-(1,1-dioxo-1λ^6-isothiazolidin-2-yl)-1H-indazol-3-yl]-2-(1-naphthyl)acetamide], the IC50 was < 50 nM.

Regarding `O=C(Cc1ccc2ccccc2c1)Nc1n[nH]c2ccc(N3CCCS3(=O)=O)cc12` [Compound 17, N-[5-(1,1-dioxo-1λ^6-isothiazolidin-2-yl)-1H-indazol-3-yl]-2-(2-naphthyl)acetamide], the IC50 is < 50 nM.

In the case of `O=C(Cc1cccc([N+](=O)[O-])c1)Nc1n[nH]c2ccc(N3CCCS3(=O)=O)cc12` [Compound 18, N-[5-(1,1-dioxo-1λ^6-isothiazolidin-2-yl)-1H-indazol-3-yl]-2-(3-nitrophenyl)acetamide], the IC50 was < 50 nM.

Turning to `CC(=O)Nc1n[nH]c2ccc(N3CCCS3(=O)=O)cc12` [Compound 19, N-[5-(1,1-dioxo-1λ^6-isothiazolidin-2-yl)-1H-indazol-3-yl]acetamide], the IC50 was > 100000 nM.

With `CSc1ccc(CC(=O)Nc2n[nH]c3ccc(N4CCCS4(=O)=O)cc23)cc1` [Compound 20, N-[5-(1,1-dioxo-1λ^6-isothiazolidin-2-yl)-1H-indazol-3-yl]-2-[4-(methylsulfanil)phenyl]acetamide], the IC50 is < 50 nM.

`Nc1cccc(CC(=O)Nc2n[nH]c3ccc(N4CCCS4(=O)=O)cc23)c1` [Compound 21, 2-(3-aminophenyl)-N-[5-(1,1-dioxo-1λ^6-isothiazolidin-2-yl)-1H-indazol-3-yl]acetamide]: the IC50 is < 50 nM.

For the molecule `CC(=S)Nc1n[nH]c2ccc(N3CCCS3(=O)=O)cc12` [Compound 22, N-[5-(1,1-dioxo-1λ^6-isothiazolidin-2-yl)-1H-indazol-3-yl]ethanethioamide], the IC50 is < 50000 nM.

As to `CC(=NO)Nc1n[nH]c2ccc(N3CCCS3(=O)=O)cc12` [Compound 23, N-[5-(1,1-dioxo-1λ^6-isothiazolidin-2-yl)-1H-indazol-3-yl]-N′-hydroxyethaneimidoamide], the IC50 was < 100000 nM.

Consider `O=C(Cc1ccc(Cl)c(Cl)c1)Nc1n[nH]c2ccc(N3CCCS3(=O)=O)cc12` [Compound 24, 2-(3,4-dichlorophenyl)-N-[5-(1,1-dioxo-1λ^6-isothiazolidin-2-yl)-1H-indazol-3-yl]acetamide], for which the IC50 is < 50 nM.

On to `O=C(CCc1ccccc1)Nc1n[nH]c2ccc(N3CCCS3(=O)=O)cc12` [Compound 25, N-[5-(1,1-dioxo-1λ^6-isothiazolidin-2-yl)-1H-indazol-3-yl]-3-phenylpropanamide], for which the IC50 is < 1000 nM.

With `CC(C)c1ccc(CC(=O)Nc2n[nH]c3ccc(N4CCCS4(=O)=O)cc23)cc1` [Compound 26, N-[5-(1,1-dioxo-1λ^6-isothiazolidin-2-yl)-1H-indazol-3-yl]-2-(4-isopropylphenyl)acetamide], the IC50 is < 50 nM.

Turning to `Cc1cccc(CC(=O)Nc2n[nH]c3ccc(N4CCCS4(=O)=O)cc23)c1` [Compound 27, N-[5-(1,1-dioxo-1λ^6-isothiazolidin-2-yl)-1H-indazol-3-yl]-2-(3-methylphenyl)acetamide], the IC50 was < 50 nM.

Regarding `Cc1ccc(CC(=O)Nc2n[nH]c3ccc(N4CCCS4(=O)=O)cc23)cc1` [Compound 28, N-[5-(1,1-dioxo-1λ^6-isothiazolidin-2-yl)-1H-indazol-3-yl]-2-(4-methylphenyl)acetamide], the IC50 is < 50 nM.
